{"source": "patent US12263199B2", "about": "“Use of Sida rhombifolia” (priority 2019, dated 2025)", "test_system": "5-alpha reductase (5AR)", "experiment": "Analysis of the ability of inhibition of 5AR activity (β-NADPH absorbance)", "assay_type": "biochemical, Sprague Dawley rats", "details": "finasteride 100 uM, rat prostate enzyme source, 7.5 mM testosterone, 30 minutes", "procedure": "In order to prepare the 5AR enzyme source, first, 15-week-old Sprague Dawley rats (obtained from Coretech) were kept under CO2 inhalation anesthesia, and then the prostate tissue was excised. After washing 200 mg of the excised tissue twice with PBS at pH 7.4, 10 ml of lysis buffer {20 mM sodium phosphate containing 0.32 M sucrose and 1 mM ethylenediaminetetraacetic acid (EDTA) at pH 6.5} was added, followed by homogenizing the mixture by a glass homogenizer. The homogenate was centrifuged at 4° C. and 5,000 rpm for 15 minutes to take the supernatant and quantify a protein using Brad Ford reagent, and then the protein was used as a 5AR enzyme source. The remaining homogenate was stored at −70° C.\nThe ability to inhibit 5AR activity was measured using the method of Nahata and Dixit {Andrologia, 46(6):592-601, 2014}. In a 96-well plate, the enzyme source (0.8 mg/ml protein) prepared as in 2-2, a solution obtained by dissolving the solvent extract prepared in 2-1. in methanol (50 ug/ml), 7.5 mM testosterone, and 300 uM β-NADPH were reacted at 37° C. Thereafter, absorbance according to the change in the amount of β-NADPH at 350 nm was measured every 5 minutes for a total of 30 minutes. The measurement value was calculated using a standard graph of β-NADPH, and the unit was expressed as pg/ml. […]"}
{"smiles": "CC(C)(C)NC(=O)[C@H]1CC[C@H]2[C@@H]3CC[C@H]4NC(=O)C=C[C@]4(C)[C@H]3CC[C@]12C", "note": "[finasteride]", "values": [{"measurement": "concentration of β-NADPH in the reaction solution at the end of the reaction (5AR activity inhibition)", "value": "concentration of β-NADPH increased compared to that in the negative control group"}]}
